Experimental data from patent publication US5498695A, “Paranitroaniline peptides” (Pfizer Inc., priority 1994, dated 1996).
Where a SMILES comes first, the peptide text is derived from it. Where no end group is shown, it is not given here. The star is where a group is joined. pNA = O=[N+]([O-])c1ccc(N*)cc1; Cbz = O=C(OCc1ccccc1)*; Boc = CC(C)(C)OC(=O)*

What was measured:
[1] = target: T1, interleukin 1β converting enzyme (ICE) (Homo sapiens, UniProt P29466); assay: Spectrophotometric hydrolysis of pNA substrates by immobilized ICE (release of pNA at 405 nM); format: biochemical; conditions: 25° C.; for Increase In Absorbence Rates (mOD/min), first value: first of two rate values printed; for Increase In Absorbence Rates (mOD/min), first value / Increase In Absorbence Rates (mOD/min), second value: pH 7, 405 nM, condition that separates the two values not given; for Vmax (Rates) mOD/min: pNA substrate 0.01 to 1.5 mM, pH 7; for Increase In Absorbence Rates (mOD/min), second value: second of two rate values
T1 construct: ICE activity was purified from THP-1 cell lysates by three chromatographic steps; endogenous in cells; host or cells: THP-1 (ATCC-TIB 202) human monocyte cell line; Lysate was purified over G25, Q-Sepharose and MonoQ, then captured on protein A agarose beads carrying anti-ICE antibody
T1 sequence (P29466 120-297 limits assumed): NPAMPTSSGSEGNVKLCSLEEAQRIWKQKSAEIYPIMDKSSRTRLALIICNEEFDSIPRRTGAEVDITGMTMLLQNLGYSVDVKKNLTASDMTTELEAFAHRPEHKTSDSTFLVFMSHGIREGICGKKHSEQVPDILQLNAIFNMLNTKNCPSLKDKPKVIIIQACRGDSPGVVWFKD
T1 sequence (P29466 317-404 limits assumed): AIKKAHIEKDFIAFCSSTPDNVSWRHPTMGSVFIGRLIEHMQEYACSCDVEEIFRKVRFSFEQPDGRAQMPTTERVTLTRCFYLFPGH
Procedure: (§1) Other procedures for purification and assaying ICE are disclosed in Black et al., FEBS Letters, 247, 386-390 (1989), and Thornberry et al., Nature, 356, 768-774 (1992). Cell Culture And Lysates.
(§2) Human monocyte cell line, THP-1 (ATCC-TIB 202) was grown in RPMI media 1640 (Gibco BRL Gaithersburg, Md. 20877) with 10% fetal bovine serum, harvested by centrifugation, washed twice in Dulbecco's PBS […] without Ca^++, and resuspended in 10 mM Tris-HCl pH 8 buffer containing 5 mM DTT (dithiothreitol), 1 mM EDTA (ethylene diamine tetraacetic acid), 1 mM PMSF (phenylmethyl sulfonylfluoride), 1 μg/ml pepstatin, and 1 μg/ml leupeptin at 1-3×10^8 cells per ml. Cells were frozen at -70° C. until use and then lysed by thawing. Lysates were cleared by centrifugation at 20,000× g for 1 hour followed by 120,000×g for 1 hour.
(§3) ICE activity was purified from THP-1 cell lysates by three chromatographic steps: (A) Thp-1 cell lysate (1.5L) was desalted by G25 column chromatography (Pharmacia LKB Biotechnology) (B) The protein fraction was then subjected to ion-exchange chromatography on Q-Sepharose Fast Flow (Pharmacia LKB Biotechnology) in buffer A (20 mM Tris pH 7.8 containing 5 mM EDTA, 1 mM PMSF, 1 μg/ml pepstatin, and 1 μg/ml leupeptin). ICE activity was eluted with a gradient of NaCl in buffer A. (C) The active fractions from B were desalted, concentrated and subjected to MonoQ (trademark) (Pharmacia LKB Biotechnology) column chromatography. ICE activity was then eluted in a NaCl gradient. Active ICE fractions from C were pooled and used to bind immunoaffinity beads containing covalently linked antibodies raised against the first […] N-terminal residues of ICE (NH2 -Asp-Pro-Ala-Met-Pro-Thr-Ser-Ser-Val-Lys-Leu-Cys(SEQ ID NO:2)-CONH2).
Immobilization of ICE to immunoaffinity beads was done following standard protocols. Briefly, IgG fractions were covalently linked to protein A beads as described by the manufacturers (Antibody Orientation Kit Protein A Agarose supplied by Affinica (trademark) (Product manufactured by Schleicher and Schuell)). Protein A beads were pelleted by centrifugation and washed with 5 times their volume with Affinica (trademark) supplied "binding buffer". IgG, appropriately diluted in "binding buffer," was then bound to the beads. The beads were then washed and the bound IgG was covalently linked with dimethyl suberimidate. After the reaction was stopped with the "quenching buffer" supplied by Affinica (trademark), the immunoaffinity beads were washed and stored in PBS buffer containing 0.02% NAN3. To bind the immunoaffinity beads with MonoQ purified ICE preparations, the beads were washed in 10 mM Tris HCL buffer pH 7.8 containing 5 mM DDT, 1 mM EDTA-NA, 1 ug/ml peptstatin, 1 ug/ml leupeptin and 10% glycerol ("washing buffer"). After the wash, the beads were mixed with ICE in the presence of 10% DMSO final concentration. The suspension was rotated slowly for 1 hour at room temperature. Subsequently, the beads were thoroughly washed with the "washing buffer" before they were used and resuspended in an equal volume of this buffer in the enzymatic assay.
The enzymatic reaction was carried out at 25° C. in 96 microtiter wells (100 μl final volume) with active enzyme immobilized to anti-ICE antibodies covalently linked to protein A beads as described above. The incubation mixtures for the enzymatic assays contained 0.01 to 1.5 mM of the pNA substrates and was made up in 8.35 mM MES, 4.17 mM Tris, 4.17 mM acetic acid, […] DMSO, 0.8 mM EDTA and 4.17 mM DTT (final concentrations)adjusted to a final pH of 7.
The enzymatic reaction was monitored spectrophotometrically at […]. The increase in absorbance at this wave length resulted from the release of pNA chromophore after hydrolysis by ICE of the peptidic-pNA substrate. The release of the chormophore was linear with reaction time and the rates observed were proportional to ICE and substrate concentration. […]

[2] = target: T1, interleukin 1β converting enzyme (ICE); assay: Inhibition of ICE hydrolysis of CBZ-Val-Ala-Asp-pNA; format: biochemical; conditions: for Ki: substrate CBZ-Val-Ala-Asp-pNA
Procedure: as §1, §2, §3
Immobilization of ICE to immunoaffinity beads was done following standard protocols. […]
The enzymatic reaction was monitored spectrophotometrically at […]. The increase in absorbance at this wave length resulted from the release of pNA chromophore after hydrolysis by ICE of the peptidic-pNA substrate. […]

| type of inhibition ([2]; hydrolysis of CBZ-Val-Ala-Asp-pNA, affecting Km but not Vmax) | Ki [2] [µM] | Molecule | Increase In Absorbence Rates (mOD/min), first value [1] [mOD/min] | Vmax (Rates) mOD/min [1] [mOD/min] | Increase In Absorbence Rates (mOD/min), second value [1] [mOD/min] |
| --- | --- | --- | --- | --- | --- |
| competitive inhibitors | 1600 | Ac-YVHDA-NH2 [p48, Ac-Tyr-Val-His-Asp-Ala(SEQ ID NO:4)-NH2] | – | – | – |
| – | 460 | H-NEAYVHDAPVRSLN [p70, H-Asn-Glu-Ala-Tyr-Val-His-Asp-Ala-Pro-Val-Arg-Ser-Leu-Asn] | – | – | – |

More lines, now with the values behind:

| Molecule | type of inhibition ([2]; hydrolysis of CBZ-Val-Ala-Asp-pNA, affecting Km but not Vmax) | Ki [2] [µM] | Increase In Absorbence Rates (mOD/min), first value [1] [mOD/min] | Vmax (Rates) mOD/min [1] [mOD/min] | Increase In Absorbence Rates (mOD/min), second value [1] [mOD/min] |
| --- | --- | --- | --- | --- | --- |
| CC(=O)N[C@@H](Cc1ccc(O)cc1)C(=O)N[C@H](C(=O)N[C@@H](C)C(=O)N[C@@H](CC(=O)O)C(=O)Nc1ccc([N+](=O)[O-])cc1)C(C)C [Example 1, Ac-TyrValAlaAsp (SEQ ID NO:1)-p-nitroanilide] | – | – | 0.21 | 0.27 | 0.17 |
| CC(C)[C@H](NC(=O)OC(C)(C)C)C(=O)N[C@@H](C)C(=O)N[C@@H](CC(=O)O)C(=O)Nc1ccc([N+](=O)[O-])cc1 [Example 4, t-BOCValAlaAsp-p-nitroanilide] (Boc-Val-Ala-Asp-pNA) | – | – | 0.17 | 0.24 | 0.10 |
| CC(=O)N[C@H](C(=O)N[C@@H](C)C(=O)N[C@@H](CC(=O)O)C(=O)Nc1ccc([N+](=O)[O-])cc1)C(C)C [Example 5, AcValAlaAsp-p-nitroanilide] (Ac-Val-Ala-Asp-pNA) | – | – | 0.15 | 0.25 | 0.08 |
| CC(C)[C@H](NC(=O)OCc1ccccc1)C(=O)N[C@@H](C)C(=O)N[C@@H](CC(=O)O)C(=O)Nc1ccc([N+](=O)[O-])cc1 [Example 6, CBZValAlaAsp-p-nitroanilide] (Cbz-Val-Ala-Asp-pNA) | – | – | 0.18 | 0.21 | 0.16 |
